Measured values published in the METLIN SMRT retention time set (Domingo-Almenara et al. 2019).

Test: gradient 5% acetonitrile 3 min, to 50% in 2 min, to 85% in 15 min, held 3 min, 100 µL/min
Details: column: Zorbax Extend-C18 2.1 x 50 mm; eluents: water / acetonitrile, 0.1% formic acid
Outline: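 Retention times of pure standards were taken from adduct peaks that were selected by computer and manually inspected. Over 3 months, mixtures of ~100 molecules were run by HPLC–quadrupole time-of-flight mass spectrometry in positive and negative ionization mode. The Zorbax Extend-C18 column (2.1 × 50 mm, 1.8 μm) ran at 100 μL/min in water and acetonitrile, each containing 0.1% formic acid, with 40 μL dead volume and 900 μL dwell volume.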

RP-LC retention time [s] | Compound
804 | CCOc1ccc(N2CC(c3nnc(NC(=O)CC4CCCCC4)o3)CC2=O)cc1 (centres undefined)
623 | COc1ccc2[nH]cc(CCNC(=O)C3CCCN(c4nc5ncccc5n5cccc45)C3)c2c1 (centres undefined)
638 | O=C(Cn1c(C2CCCO2)nc2ccccc21)Nc1ccccc1 (centres undefined)
680 | CC(=O)Nc1ccc(Br)cc1
770 | COc1ccc(-c2cn3cccnc3n2)cc1NC(=O)c1c(-c2ccccc2Cl)noc1C
640 | COc1ccc(NC(=O)CC2=C3CCCCC3NC2=O)cn1 (centres undefined)
561 | CCCn1cc(-c2ccncc2)cc1C(=O)NC1CCN(Cc2ccccc2)CC1
849 | COc1ccc(SCCCC(=O)NCc2ccccc2)cc1
853 | COC(=O)c1c(NCc2ccc(SC)cc2)c2cccc(Cl)c2[nH]c1=O
806 | CCn1ccc2sc(C)c(C(=O)NCCC(C)C)c2c1=O
1050 | CCOc1ccc(CC(=O)N2CCCC2c2nc(-c3ccccc3Cl)no2)cc1OCC (centres undefined)
854 | CCn1c(SCC(=O)Nc2ccccc2C(F)(F)F)nc2c(c1=O)SC(C)C2 (centres undefined)
887 | CCNC(=O)c1cccc(Nc2c(-c3ccc(SC)cc3)nc3cnccn23)c1
792 | Cc1ccccc1CN1CCN(CC(=O)Nc2cccc(Cl)c2C)C(=O)C1=O
789 | COc1cccc(NC(=O)CN2C(=O)NC3(CCC(C)CC3)C2=O)c1 (centres undefined)
638 | Cc1c(-c2cccc(NC(=O)c3cccs3)c2)nc2ncccn12

RP-LC retention time [s] | Compound
1040 | Cc1ccccc1-c1noc(CN2C(=O)COc3ccccc32)n1
694 | CC(C)c1ccc2c(c1)-c1ccccc1S(=O)(=O)N2CC(=O)NCCCN1CCOCC1
1350 | CCOc1cc(C(=O)Nc2ccc(F)cc2F)nc2c(F)cccc12
673 | CN(CCCNC(=O)CCCn1c(=O)c2cccn2c2ccc(F)cc21)Cc1ccccc1
1270 | CC(C)c1nc(-n2cccc2)sc1C(=O)Nc1ccccc1F
868 | Cc1ccc(CNC(=O)C2(C)CN(S(C)(=O)=O)CC(=O)N2Cc2cccc(C)c2)cc1 (centres undefined)
735 | Cc1cc(C)cc(NC(=O)Cn2cc(-c3noc(-c4ccncc4)n3)nc2C)c1
754 | CCOCCCNC(=O)CCc1nnc2ccc(-c3ccc(C)c(C)c3)nn12
1140 | CCc1ccc(S(=O)(=O)N2CCC3(CC2)C(=O)N(CC)c2ccccc23)cc1
663 | O=C(Cn1nc2n(c1=O)CCCC2)NCc1ccccc1Br
721 | Cc1cc(NC(=O)C2CCCN(c3nnc4cccc(C)n34)C2)ccc1F (centres undefined)
662 | COCCN(Cc1ccc(Cl)cc1)Cc1cc(=O)n2cc(C)ccc2n1
802 | COc1ccc(C(=O)Nc2cc(-c3cccnc3)no2)c(OC)c1
724 | CCCC(=O)Nc1ccc2c(c1)Sc1ncccc1C(=O)N2CC
607 | Cc1cccc(NC(=O)CN2C(=O)C3CCCCN3c3ccc(S(=O)(=O)N(C)C)cc32)c1 (centres undefined)
873 | O=C(NCCc1c[nH]c2ccc(Cl)cc12)c1ccccc1Cl

Second part, the compound before the results:

Compound | RP-LC retention time [s]
COC(=O)c1cccc(C(=O)N2CCN(c3ccccc3F)CC2)n1 | 777
O=C(CCCc1nc2cccnc2n1Cc1ccc(F)cc1)N1CCN(c2ccccn2)CC1 | 606
O=C(C1CN(S(=O)(=O)c2ccccc2)CC12CCCCC2)N1CCOCC1 (centres undefined) | 840
CC(C)N1CCN(S(=O)(=O)c2cc(-c3nnc(C4CCC4)o3)co2)CC1 | 622
CC1=C(c2ccc(Cl)cc2)S(=O)(=O)N=C1N1CCCN(C(=O)C2CCCO2)CC1 (centres undefined) | 758
Cc1ccc(-c2noc(-c3ccccc3S(=O)(=O)N3CCCCC3)n2)cc1 | 1210
COc1ccc(CCC(=O)N2CCc3c(c(C(=O)N4CCCC(C(=O)NC5CC5)C4)nn3C)C2)cc1 (centres undefined) | 649
CC(CCc1ccco1)NC(=O)C1CCc2nc(N3CCCCC3)ncc2C1 (centres undefined) | 777
CCNc1cc(N2CCC(CCC(=O)NCCc3cccs3)CC2)ncn1 | 570
CC(=O)O[C@@H]1CC[C@@]2(C)[C@H](C1)[C@H](OC(C)=O)C[C@@H]1[C@@H]2C[C@H]2[C@@H]3CN4C[C@H](C)CC[C@H]4[C@H](C)[C@H]3CC[C@@]12O | 716
O=C(Nc1ccc(N2CCN(C3CCCCC3)C2=O)nc1)c1ccccc1 | 630
Cc1nn(-c2ccccc2)c(C)c1S(=O)(=O)N1CCC(C(=O)NC2CCCC2)CC1 | 860
Cc1ccc(-c2nc3ccccn3c2Nc2ccccc2C)cc1 | 731
CC(C)Cc1nc(C2CN(C(=O)CC3CCCC3)CC23CCCC3)no1 (centres undefined) | 1210
O=C(Nc1ccc2c(c1)OCO2)N1CCN(c2ccc3nnc(C4CC4)n3n2)CC1 | 613
O=C(Cn1nc(C2CC2)cc1C(=O)N1CCCC1)Nc1ccccc1Cl | 815
COc1ccc(OC)c(CNC(=O)C2CCN(Cc3cn(C)c4ccc(OC)cc34)CC2)c1 | 682
Cc1nc2cc(-c3noc(-c4ccc(Cl)s4)n3)ccc2o1 | 1230
Cc1cc(C)n(-c2ccc(N3CCN(C(=O)COc4ncccn4)CC3)nn2)n1 | 596

Compound | RP-LC retention time [s]
O=C(Nc1nc2ccccc2[nH]1)c1cccc(Cl)c1 | 703
COc1cc(Cl)c(C)cc1NC(=O)C1CCN(c2c(C(=O)N3CCOCC3)cnc3snc(C)c23)CC1 | 945
O=S(=O)(c1ccccc1Cl)N1CC(F)(F)C[C@H]1COc1cccnc1 | 731
CC(C)NC(=O)c1ccc(OCC2CCCN2C(=O)c2cc(F)ccc2Cl)cc1 (centres undefined) | 881
CCOC(=O)C1CCN(C(=O)c2nc(N(CC)CC)c3c(C)cc(C)nc3n2)CC1 | 657
Clc1ccc(Nc2nc(-c3ccncc3)nc3ccccc23)cc1 | 848
O=C(Nc1nnc(-c2ccc(C(F)(F)F)cc2)o1)C1CC1 | 714
Cc1ccc(-c2nc(-c3cccc(-c4ccn[nH]4)c3)no2)cc1C | 1150
CCc1ccc(NC(=O)C2CCc3nc(N4CCOCC4)ncc3C2)cc1 (centres undefined) | 835
Cc1cnc(C2CN(Cc3cccc(OC(F)(F)F)c3)C2)n1CC1CC1 | 594
COC(=O)c1ccc(C(=O)OC)c(NC(=O)N2CCC(CN3CC(C)CC(C)C3)CC2)c1 (centres undefined) | 722
COc1cccc(-c2cc3c(=O)n(Cc4nc(-c5cccc(Br)c5)no4)ccn3n2)c1 | 1080
O=C(NCc1ccccc1F)c1ccc2c(c1)ncn2CCN1CCCC1 | 574
CC1=NS(=O)(=O)N(C)C=C1C(=O)OCc1nc(-c2cccc(F)c2)no1 | 967
O=C(c1cccs1)N1CCC(n2c(-c3ccoc3)nc3cccnc32)C1 (centres undefined) | 685
CCC(=O)NCC[C@@H]1CCc2ccc3c(c21)CCO3 | 833
O=C(c1sc2ncccc2c1-n1cccc1)N1CCN(c2ncccn2)CC1 | 866
O=C(Nc1ccc2c(c1)OCCO2)N1CCC2(CC1)CC(N1CCOCC1)CCO2 (centres undefined) | 572
CN1C(=O)c2ccccc2Oc2ccc(C(=O)N3CCC4(CC3)OCCO4)cc21 | 741

Compound | RP-LC retention time [s]
Cc1cccc(NC(=O)N2CCN(c3cc(C)nc(N4CCOCC4)n3)CC2)c1 | 623
CC(C)c1ccc(C(=O)N2CCc3c(c(-c4nc(C5CC5)no4)nn3C)C2)cc1 | 971
CC1=C(c2ccc(C)c(C)c2)S(=O)(=O)N=C1N1CCC(NC(=O)C2CCCO2)CC1 (centres undefined) | 788
O=C(NCCc1ccccc1)C1CCN(C(=O)c2ncn3c2COC(c2ccccc2)C3)CC1 (centres undefined) | 708
CCN(CC)C(=O)N1CCCC(Cc2nncn2-c2ccccc2)C1 (centres undefined) | 628
O=C(Nc1nc(-c2ccccc2)cs1)C1Cc2ccccc2CN1S(=O)(=O)c1cccs1 (centres undefined) | 1160
O=C(Cn1cnc2onc(-c3ccc(Cl)cc3)c2c1=O)N1CCCc2ccccc21 | 1100
COCCN1CCC2(CC1)CN(Cc1ccc(C(C)C)cc1)Cc1ccccc1O2 | 667
CCc1noc(-c2ccnc(-n3ncc(C(=O)NC4CCCCC4)c3C)c2)n1 | 1020
Nc1c(C(=O)Nc2ccccc2F)sc2nc3c(cc12)CCCC3 | 996
Nc1cc(C2CCN(C(=O)COc3ccc(F)cc3)CC2)no1 | 656
NC(=O)c1cc[nH]c1C1CCCN(C(=O)c2ccc(Cn3cncn3)o2)C1 (centres undefined) | 560
CC(C)CNC(=O)c1cn(-c2ccc(S(=O)(=O)N3CCCC(C)C3)cn2)cn1 (centres undefined) | 936
COc1ccc(C(=O)N2CCc3nc(CNC(=O)C4CCC4)n(C)c3C2)cc1 | 516
CCn1ccc2sc(C)c(C(=O)N3CCCCCC3)c2c1=O | 760
CC(C(=O)NCCN1CCCCC1)n1c(=O)c(C(F)(F)F)nc2ccccc21 (centres undefined) | 601
CCN(Cc1ccccc1)S(=O)(=O)c1c(C)c(-c2nnc(C3CCC3)o2)n(C)c1C | 1130
O=c1n(Cc2ccccc2)nc2c(S(=O)(=O)N3CCCCCC3)cccn12 | 948
Cn1cc(C(=O)N2CCN(C3CCCCC3)CC2)c2cccnc21 | 632
